Data taken from patent publication US9249085B2, “Aniline derivatives, their preparation and their therapeutic application” (FOVEA PHARMACEUTICALS, priority 2011, dated 2016).

Target: recombinant human prostanoid EP2 receptor (Homo sapiens (Human), UniProt P43116)
Assay: Human prostanoid EP2 receptor cellular functional assay (cAMP, HTRF)
Format: cell-based
Conditions: for EC50: CHO cells expressing recombinant human EP2, cAMP by HTRF, 30 min, 37° C., read-out: In vitro functional assay EP2 (h) EC50; for In vitro functional assay EP2 (h) % response: percent of control specific agonist response (10 μM PGE2)
Protocol: Test 1.2: Human Prostanoid EP2 Receptor Cellular Functional Assay
Human CHO cells expressing the recombinant human prostanoid EP2 receptor were suspended in assay medium (HBSS buffer (Invitrogen) containing 20 mM HEPES (pH7.4) and 500 μM isobutyl-methylxanthine IBMX) and plated out to yield approximately 1×10^4 cells/well in a 96-well. Following this, cells were incubated with agonists for 30 min in the presence of the test compounds. For stimulated control measurements, separate assay wells contain 10 μM PGE2 (control specific agonist). All incubations were carried out at 37° C. in a 5% CO2 atmosphere. Following incubation, the amount of cAMP in each well was determined by HTRF method. The cells are lysed and the fluorescence acceptor (D2-labeled cAMP) and fluorescence donor (anti-cAMP antibody labeled with europium cryptate) are added. After 60 min at room temperature, the fluorescence transfer is measured at λ ex=337 nm and λ em=620 and 665 nm using a microplate reader (Rubystar, BMG).
The cAMP concentration is determined by dividing the signal measured at 665 nm by that measured at 620 nm (ratio).
The standard reference agonist PGE2 was tested at several concentrations to generate a concentration-response curve to determined EC50.
Analysis and Expression of Results
The results are expressed as a percent of control specific agonist response ((measured specific response/control specific agonist response)×100) obtained in the presence of the test compounds. The EC50 values (concentration producing a half-maximal specific response) were determined by non-linear regression analysis of the concentration-response curves generated with mean replicate values using Hill equation curve fitting (Y=D+[(A−D)/(1+(C/C50)nH)], where Y=specific response, D=minimum specific response, A=maximum specific response, C=compound concentration, and C50=EC50 and nH=slope factor). This analysis was performed using a software developed at Cerep (Hill software) and validated by comparison with data generated by the commercial software SigmaPlot® 4.0 for Windows® (© 1997 by SPSS Inc.).

Sequence of recombinant human prostanoid EP2 receptor (P43116 whole entry): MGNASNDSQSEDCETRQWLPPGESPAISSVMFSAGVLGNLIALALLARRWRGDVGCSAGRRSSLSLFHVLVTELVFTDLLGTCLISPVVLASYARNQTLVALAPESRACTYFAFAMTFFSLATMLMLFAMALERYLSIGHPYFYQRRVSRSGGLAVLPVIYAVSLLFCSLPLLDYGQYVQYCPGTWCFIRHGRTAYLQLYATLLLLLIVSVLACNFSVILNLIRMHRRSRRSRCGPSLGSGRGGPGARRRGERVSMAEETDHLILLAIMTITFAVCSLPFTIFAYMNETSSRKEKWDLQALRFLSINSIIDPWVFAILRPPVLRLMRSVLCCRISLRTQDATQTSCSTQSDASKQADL

## CC(Nc1c(F)ccc(OCC(=O)O)c1F)c1cc(-c2cccc(F)c2)ccc1F (racemic) [I(as), (R,S)-2-[2,4-difluoro-3-[1-[2-fluoro-5-(3-fluorophenyl)phenyl]ethylamino]phenoxy]acetic acid]
  EC50: 11 nM
  In vitro functional assay EP2 (h) % response: 107%

## C[C@@H](Nc1c(F)ccc(OCC(=O)O)c1F)c1cc(-c2cccc(F)c2)ccc1F (single isomer, unassigned) [I(as) (+ isomer)]
  EC50: 18 nM
  In vitro functional assay EP2 (h) % response: 124%

## O=C(O)COc1cccc(CN(Cc2ccc(-n3cccn3)cc2)S(=O)(=O)c2cccnc2)c1 [CP-544326, reference compound]
  EC50: 46 nM
  In vitro functional assay EP2 (h) % response: 72%

## O=C(O)COc1cccc(NCc2cc(-c3cccc(F)c3)ccc2F)c1 [I(a), 2-[3-[[2-Fluoro-5-(3-fluorophenyl)phenyl]methylamino]phenoxy]acetic acid]
  EC50: 110 nM
  In vitro functional assay EP2 (h) % response: 74%

## Cc1cc(OCC(=O)O)c(F)c(NCc2cc(-c3cccc(F)c3)ccc2F)c1F [I(ab), 2-[2,4-difluoro-3-[[2-fluoro-5-(3-fluorophenyl)phenyl]methylamino]-5-methyl-phenoxy]acetic acid]
  EC50: 50 nM
  In vitro functional assay EP2 (h) % response: 105%

## Cc1cc(OCC(=O)O)c(C)c(NCc2cc(-c3cccc(F)c3)ccc2F)c1F [I(ac), 2-[4-fluoro-3-[[2-fluoro-5-(3-fluorophenyl)phenyl]methylamino]-2,5-dimethyl-phenoxy]acetic acid]
  EC50: 18 nM
  In vitro functional assay EP2 (h) % response: 117%

## Cc1cc(CNc2c(F)ccc(OCC(=O)O)c2C)cc(-c2cccc(F)c2)c1 [I(ae), 2-[4-fluoro-3-[[3-(3-fluorophenyl)-5-methyl-phenyl]methylamino]-2-methyl-phenoxy]acetic acid]
  EC50: 3 nM
  In vitro functional assay EP2 (h) % response: 83%

## COc1c(C)cc(-c2cccc(F)c2)cc1CNc1c(F)ccc(OCC(=O)O)c1C [I(af), 2-[4-fluoro-3-[[5-(3-fluorophenyl)-2-methoxy-3-methyl-phenyl]methylamino]-2-methyl-phenoxy]acetic acid]
  EC50: 5 nM
  In vitro functional assay EP2 (h) % response: 70%

## Cc1c(OCC(=O)O)ccc(F)c1NCc1cc(O)cc(-c2cccc(F)c2)c1 [I(ah), 2-[4-fluoro-3-[[3-(3-fluorophenyl)-5-hydroxy-phenyl]methylamino]-2-methyl-phenoxy]acetic acid]
  EC50: 8 nM
  In vitro functional assay EP2 (h) % response: 74%

## Cc1cc(CNc2c(F)ccc(OCC(=O)O)c2C)c(F)c(-c2cccc(F)c2)c1 [I(ai), 2-[4-fluoro-3-[[2-fluoro-3-(3-fluorophenyl)-5-methyl-phenyl]methylamino]-2-methyl-phenoxy]acetic acid]
  EC50: 35 nM
  In vitro functional assay EP2 (h) % response: 80%

## Cc1cc(CNc2c(C)ccc(OCC(=O)O)c2C)cc(-c2cccc(F)c2)c1 [I(aj), 2-[3-[[3-(3-fluorophenyl)-5-methyl-phenyl]methylamino]-2,4-dimethyl-phenoxy]acetic acid]
  EC50: 7 nM
  In vitro functional assay EP2 (h) % response: 79%

## Cc1cc(CNc2c(C)ccc(OCC(=O)O)c2C)c(F)c(-c2cccc(F)c2)c1 [I(am), 2-[3-[[2-Fluoro-3-(3-fluorophenyl)-5-methyl-phenyl]methylamino]-2,4-dimethyl-phenoxy]acetic acid]
  EC50: 3 nM
  In vitro functional assay EP2 (h) % response: 87%

## N#Cc1c(OCC(=O)O)ccc(F)c1NCc1cc(-c2cccc(F)c2)ccc1F [I(an), 2-[2-cyano-4-fluoro-3-[[2-fluoro-5-(3-fluorophenyl)phenyl]methylamino]phenoxy]acetic acid]
  EC50: 9 nM
  In vitro functional assay EP2 (h) % response: 91%

## Cc1ccc(OCC(=O)O)c(C)c1NCc1cc(O)cc(-c2cccc(F)c2)c1 [I(ao), 2-[3-[[3-(3-fluorophenyl)-5-hydroxy-phenyl]methylamino]-2,4-dimethyl-phenoxy]acetic acid]
  EC50: 1 nM
  In vitro functional assay EP2 (h) % response: 76%

## COc1cc(CNc2c(C)ccc(OCC(=O)O)c2C)cc(-c2cccc(F)c2)c1 [I(ap), 2-[3-[[3-(3-fluorophenyl)-5-methoxy-phenyl]methylamino]-2,4-dimethyl-phenoxy]acetic acid]
  EC50: 3 nM
  In vitro functional assay EP2 (h) % response: 89%

## Cc1cc(-c2ccc(F)c(F)c2)cc(CNc2c(F)ccc(OCC(=O)O)c2F)c1C [I(aq), 2-[3-[[5-(3,4-difluorophenyl)-2,3-dimethyl-phenyl]methylamino]-2,4-difluoro-phenoxy]acetic acid]
  EC50: 2 nM
  In vitro functional assay EP2 (h) % response: 31%

## Cc1cc(-c2cc(F)cc(F)c2)cc(CNc2c(F)ccc(OCC(=O)O)c2F)c1C [I(ar), 2-[3-[[5-(3,5-difluorophenyl)-2,3-dimethyl-phenyl]methylamino]-2,4-difluoro-phenoxy]acetic acid]
  EC50: 8 nM
  In vitro functional assay EP2 (h) % response: 130%

## Cc1cc(-c2ccccc2)cc(CNc2c(F)ccc(OCC(=O)O)c2F)c1C [I(au), 2-[3-[(2,3-dimethyl-5-phenyl-phenyl)methylamino]-2,4-difluoro-phenoxy]acetic acid]
  EC50: 15 nM
  In vitro functional assay EP2 (h) % response: 81%

## Cc1c(F)cc(-c2cccc(F)c2)cc1CNc1c(F)ccc(OCC(=O)O)c1C [I(av), 2-[4-fluoro-3-[[3-fluoro-5-(3-fluorophenyl)-2-methyl-phenyl]methylamino]-2-methyl-phenoxy]acetic acid]
  EC50: 5 nM
  In vitro functional assay EP2 (h) % response: 97%

## O=C(O)COc1ccc(F)c(NCc2cc(-c3cccc(F)c3)ccc2F)c1F [I(b), 2-[2,4-Difluoro-3-[[2-fluoro-5-(3-fluorophenyl)phenyl]methylamino]phenoxy]acetic acid]
  EC50: 28 nM
  In vitro functional assay EP2 (h) % response: 82%

## Cc1ccc(-c2cccc(F)c2)cc1CNc1c(F)ccc(OCC(=O)O)c1F [I(c), 2-[2,4-Difluoro-3-[[5-(3-fluorophenyl)-2-methyl-phenyl]methylamino]phenoxy]acetic acid]
  EC50: 69 nM
  In vitro functional assay EP2 (h) % response: 66%

## Cc1cc(CNc2c(F)ccc(OCC(=O)O)c2F)cc(-c2cccc(F)c2)c1 [I(d), 2-[2,4-Difluoro-3-[[3-(3-fluorophenyl)-5-methyl-phenyl]methylamino]phenoxy]acetic acid]
  EC50: 35 nM
  In vitro functional assay EP2 (h) % response: 74%

## O=C(O)COc1ccc(F)c(NCc2cccc(-c3cccc(F)c3)c2)c1F [I(e), 2-[2,4-Difluoro-3-[[3-(3-fluorophenyl)phenyl]methylamino]phenoxy]acetic acid]
  EC50: 160 nM
  In vitro functional assay EP2 (h) % response: 65%

## O=C(O)COc1ccc(F)c(NCc2cc(O)cc(-c3cccc(F)c3)c2F)c1F [I(f), 2-[2,4-Difluoro-3-[[2-fluoro-3-(3-fluorophenyl)-5-hydroxy-phenyl]methylamino]phenoxy]acetic acid]
  EC50: 160 nM
  In vitro functional assay EP2 (h) % response: 61%

## Cc1cc(CNc2c(F)ccc(OCC(=O)O)c2F)c(F)c(-c2cccc(F)c2)c1 [I(g), 2-[2,4-difluoro-3-[[2-fluoro-3-(3-fluorophenyl)-5-methyl-phenyl]methylamino]phenoxy]acetic acid]
  EC50: 55 nM
  In vitro functional assay EP2 (h) % response: 80%

## Cc1cc(-c2cccc(F)c2)cc(CNc2c(F)ccc(OCC(=O)O)c2F)c1F [I(h), 2-[2,4-difluoro-3-[[2-fluoro-5-(3-fluorophenyl)-3-methyl-phenyl]methylamino]phenoxy]acetic acid]
  EC50: 13 nM
  In vitro functional assay EP2 (h) % response: 88%

## Cc1ccc(OCC(=O)O)c(F)c1NCc1cc(-c2cccc(F)c2)ccc1F [I(i), 2-[2-Fluoro-3-[[2-fluoro-5-(3-fluorophenyl)phenyl]methylamino]-4-methyl-phenoxy]acetic acid]
  EC50: 99 nM
  In vitro functional assay EP2 (h) % response: 73%

## Cc1ccc(OCC(=O)O)c(C)c1NCc1cc(-c2cccc(F)c2)ccc1F [I(j), 2-[3-[[2-Fluoro-5-(3-fluorophenyl)phenyl]methylamino]-2,4-dimethyl-phenoxy]acetic acid]
  EC50: 26 nM
  In vitro functional assay EP2 (h) % response: 80%

## O=C(O)COc1ccc(F)c(NCc2cc(-c3cccc(F)c3)ccc2Cl)c1F [I(l), 2-[3-[[2-Chloro-5-(3-fluorophenyl)phenyl]methylamino]-2,4-difluoro-phenoxy]acetic acid]
  EC50: 24 nM
  In vitro functional assay EP2 (h) % response: 76%

## Cc1c(OCC(=O)O)ccc(F)c1NCc1cc(-c2cccc(F)c2)ccc1F [I(m), 2-[4-Fluoro-3-[[2-fluoro-5-(3-fluorophenyl)phenyl]methylamino]-2-methyl-phenoxy]acetic acid]
  EC50: 10 nM
  In vitro functional assay EP2 (h) % response: 89%
